As a reminder, the pKi is the Ki on a negative log10 scale, so that one unit is a factor of ten. A lower pKi goes with a large Ki. In general, pIC50 refers to the negative decadic logarithm of the IC50, by convention in mol/L. Lower therefore signals a high IC50.

Assay [1] can be described thus: Binding affinity to SARS coronavirus 1 3CL protease using Dabcyl-KTSAVLQ/SGFRKME-Edans as substrate measured by FRET assay. The arrangement: species or system Severe acute respiratory syndrome-related coronavirus.
Assay [2] in a line: Inhibition of SARS coronavirus 1 3CL protease expressed in Escherichia coli measured by HPLC method. Also on record: species or system Severe acute respiratory syndrome-related coronavirus.
Assay [3] deals with Replicase polyprotein 1ab (Severe acute respiratory syndrome coronavirus 2, UniProt P0DTD1). The assay is described as follows: Inhibition of SARS-CoV-2 3CLpro preincubated for 30 mins followed by addition of (Dabcyl)KTSAVLQSGFRKM(Glu) peptide substrate and measured after […] by FRET assay.
Assay [4] can be described thus: Inhibition of SARS coronavirus 1 3CL protease using Dabcyl-KTSAVLQ/SGFRKME-Edans as substrate measured by FRET assay. The arrangement: species or system Severe acute respiratory syndrome-related coronavirus.

pIC50, pKi: −log10 of the molar value.

Consider `C[C@@H](OC(C)(C)C)[C@H](NC(=O)OCc1ccccc1)C(=O)N[C@@H](CC1CCCCC1)C(=O)N[C@H](C=O)C[C@@H]1CCNC1=O`, for which the pKi in assay [1] was 7.28.

For `COc1cccc2[nH]c(C(=O)N[C@@H](CC(C)C)C(=O)N[C@@H](C[C@@H]3CCNC3=O)C(=O)CO)cc12` [PF-00835231], in assay [2], the pIC50 is 8.40.

As for `CCOC(=O)/C=C/[C@H](C[C@@H]1CCNC1=O)NC(=O)[C@H](CC(C)C)NC(=O)[C@@H](NC(=O)OCc1ccccc1)C(C)C`, the pIC50 in assay [3] is 6.54.

`O=C[C@H](C[C@@H]1CCNC1=O)NC(=O)[C@H](Cc1cccc(F)c1)NC(=O)c1cc2ccccc2[nH]1` had a negative-log IC50 (pIC50) in assay [3] of 7.64.

Turning to `CC(C)C[C@H](NC(=O)OCc1ccccc1)C(=O)N[C@@H](CC(C)C)C(=O)N[C@@H](C[C@@H]1CCNC1=O)C(=O)C(=O)NC(C)C`, the negative logarithm of the IC50 (pIC50) in assay [3] was 7.19; in assay [4], 8.15.

`CC(C)C[C@H](NC(=O)OCc1ccccc1)C(=O)N[C@@H](C[C@@H]1CCNC1=O)C(=O)c1nc2ccccc2s1` showed a negative logarithm of the IC50 (pIC50) in assay [3] of less than 5.00.
